Source: US10550130B2, “Benzo-thiazolo-imidazole compounds and uses thereof” (KING SAUD UNIVERSITY, priority 2015, dated 2020)

How the values were obtained:
Numb = assay: Immunofluorescence of Numb in MDA-MB-231 breast cancer cells; format: cell-based; details: MDA-MB-231 cells; 0.01, 0.1, 1 or 10 μM
Method: (§1) MDA-MB-231 breast cancer cells were treated either with vehicle (control) or with 0.01 μM, 0.1 μM, 1 μM or 10 μM final concentration of doxorubicin, taxotere or KSA-101696. Then, the cells were cytospun to glass slides by centrifugation at 800 rpm for 3 min. Slides were then air-dried overnight and 4% formaldehyde fixed for 10 min. For staining, the cell membrane was permeabilized with 0.5% triton-X (Sigma) followed by overnight incubation with primary antibodies (anti-Numb, Abcam) and (anti-intracellular Notch-1, Cell Signalling) at 1:100. Cells were washed and stained with AlexaFluor goat anti-rabbit IgG 488 (Invitrogenat) 1:400 for 30 minutes. 300 nM DAPI (Invitrogen, Carlsbad, Calif., USA) was added for 10 minutes to counterstain the nuclei. Slides were mounted and immunofluorescence was visualized using BD Pathway 855 microscope.
(§2) Numb exerts its functional role on cell fate decisions by antagonizing Notch signaling activities. The molecular mechanisms underlying this relationship appear to rely on the ubiquitination of the membrane bound Notch-1 receptor and the subsequent degradation of its NICD (Notch intracellular domain) following receptor activation.

intracellular Notch-1 = assay: Immunofluorescence of intracellular Notch-1 in MDA-MB-231 breast cancer cells; format: cell-based; details: MDA-MB-231 cells; 0.01, 0.1, 1 or 10 μM
Method: as §1, §2

[1] = Determination of LD50 value; details: male, Swiss Webster Albino, mouse, in vivo, ip
Method: Swiss Webster Albino mice were housed in groups of 2 or 4 in elevated steel wire-mesh cages in a controlled room maintained at a temperature of 22±2° C., relative humidity of 50±10% and a 12 h light-dark cycle. Rodent diet chow (feed) provided by Grain Silos Flour Mills Organization, Riyadh, Saudi Arabia, and tap water for drinking were made available ad lib.
Male mice were divided into various groups (n=10 animals per group). Each group was administered a different dose of the respective compound via the intraperitoneal (i.p.) route. The dose range used was 100-5000 mg/kg.
During the observation periods there was a continuous record of any behavioral changes and clinical symptoms that caused by effects on the central and autonomic nervous systems, the respiratory and the cardiovascular systems or any other action on the gastrointestinal tract, the renal systems, eye, skin, skeletal muscles etc.
During the 72 hour observation period the number of animals that died in every group was recorded. The percentage of death calculated and converted to probits to calculate the LD50 value for each compound in mg/kg. The LD50 value reported in this study provided compounds in their liquid form in the provided concentrations.

| SMILES | Numb expression (immunofluorescence microscopy) (Numb) | Notch self-renewal pathway (intracellular Notch-1) | LD50 at 72 h [1] |
| --- | --- | --- | --- |
| COc1cccc2c1C(=O)c1c(O)c3c(c(O)c1C2=O)C[C@@](O)(C(=O)CO)C[C@@H]3O[C@H]1C[C@H](N)[C@H](O)[C@H](C)O1 [Doxorubicin] | inhibited Numb expression | activated the Notch self-renewal pathway | 60 mg/kg |
| CC(=O)O[C@@]12CO[C@@H]1C[C@H](O)[C@@]1(C)C(=O)[C@H](O)C3=C(C)[C@@H](OC(=O)[C@H](O)[C@@H](NC(=O)OC(C)(C)C)c4ccccc4)C[C@@](O)([C@@H](OC(=O)c4ccccc4)[C@H]21)C3(C)C [taxotere] | inhibited Numb expression | activated the Notch self-renewal pathway | – |
